Assay results as given in patent US20240108559A1, “TOPICAL COMPOSITIONS CONTAINING SYNTHETIC ESTERS OF SINAPINIC ACID AND METHODS FOR TREATING KERATIN SURFACES” (ELC MANAGEMENT LLC, priority 2017, published 2024).
Structures can show the parent of a compound that is named as a salt.

Key:
[1] = UV absorbance peak stability over time and temperature (UV visible spectroscopy); type: physicochemical; details: 1.4 and 14 ppm in 50/50 water and butylene glycol, time 0, week 1, 2, 4, 25°, 40°, 50° C., FIG. 1, FIG. 2
Protocol: Sinapoyl malate and CAPE were evaluated for UV absorption. 50 and 100 ppm of each compound was dissolved in water and a second sample set of isopropanol. Additional samples of sinapyl malate and CAPE were prepared by dissolving 0.025% and 0.05% of each ingredient in a 50/50 mixture of water and butylene glycol. Further dilution to obtain a concentration of 1.4 ppm and 14 ppm was performed.
The samples were tested for UV absorption across the UV range by measuring with an Agilent 8453 UV visible spectroscopy system at wavelengths ranging across 200 to 450 nm at time 0, week 1, week 2, and week 4. The term “NA” means that a previously observed absorbance peak was no longer visible. The term “peak” means the two highest absorbance peaks in the UV spectrum. The term “valley” means the two lowest point between the absorbance peaks. In the case where there is only one peak or valley it means that the other, previously observed peak or valley was deteriorated at the time and temperature of the stability study. In the case where all peaks and valleys are indicated “NA” it means that the sample deteriorated entirely and no longer absorbed in the UV range at all.

Compound | stability of UV absorbance peaks over time and temperature [1] | melting point [°C]
O=C(/C=C/c1ccc(O)c(O)c1)OCCc1ccccc1 [CAPE, reference compound] | much less stability over time and temperature | –
COc1cc(/C=C/C(=O)OC(CC(=O)O)C(=O)O)cc(OC)c1O (stereo not drawn) [Sinapoyl malate] | more stable over time and temperature | –
COc1cc(/C=C/C(=O)OC(CC(=O)O)C(=O)O)cc(OC)c1O (stereo not drawn) (as salt: malate) [Sinapoyl malate] | – | 55 to 65
